Data published in US7495028B2, “R-bambuterol, its preparation and therapeutic uses” (priority 2002, dated 2009).
Counter-ions that a name gives are not always drawn. Marks after values point to notes of the source that are not given here.

What was measured:
hyperlipidemia mice = assay: Lipid lowering effects in Tyloxapol-induced hyperlipidemia mice; assay type: in vivo; conditions: for TG lipid level: plasma 24 hours after Tyloxapol
Method: Test method: Male and […] mice, Kunming strain, 35 each, weight 18-22 grams, were used. Food and water were available ad libitum. The animals were randomized into 7 groups (n=10). Groups of animals were administered orafly, via a stomach tube, vehicle (distilled water, two groups), R-bambuterol hydrochloride (10 mg/kg and 5 mg/kg), racemic bambuterol hydrochloride (10 mg/kg and 5 mg/kg) and simvastatin (10 mg/kg) once a day for four days. With the exception of one vehicle—treated group (as control), Tyloxapol (400 mg/kg, Sigma Chemical Co.) was injected into the peritoneal cavity of the mice of all groups immediately after the last treatment on the fourth day in order to induce hyperlipidemia. All the animals were fasted overnight prior to the injection of Tyloxapol. Blood samples were collected by cardiac puncture 24 hours after the injection of Tyloxapol. The blood samples were processed to plasma, and concentration of triglycerides (TG), cholesterol (CHO), high density lipoprotein (HDL), low density lipoprotein (LDL) and very low density lipoprotein (VLDL) were measured with an autoblood analyzer (Olympic, Japan).

[1] = system: isolated guinea pig lung strip; assay: Bronchodilating effect on isolated guinea pig lung strip pre-contracted by histamine; assay type: cell-based
Method: Test method: Guinea pigs (Dunlin-Hartley, ca. 400 g) were used. After anesthesia, the chest was opened and sections of lung tissue about 3 mm in width, were dissected quickly from a lower lobe with the longitudinal axis of the strip cut parallel to the bronchus. The strips were further divided into two thin strips with approximate dimension of 20×3×3 mm. With threads attached to each end, strips were mounted in organ baths containing aerated Krebs solution at 37° C. A load of between 0.5-1.0 g force was applied by gentle stretching, and the tissue was allowed to equilibrate for 60 min with the solution changed at 20 min intervals. The lung strips were pre-contracted by 10^−5 M histamine, then an equal volume of solution containing R-bambuterol or racemic bambuterol was added cumulatively into the organ bath. The contractions of the lung strips were measured isometrically with force-displacement transducers and recorded.
Based on the pharmacokinetic studies of racemic bambuterol hydrochloride, about 50% of absorbed bambuterol is hydrolyzed to terbutaline, the active-parent form, in plasma. There is little cholinesterase in the lung strip preparation, so neither the test compound nor racemic bambuterol has significant effects. In order to test the compound of invention in vitro on isolated guinea-pig lung tissue, R-bambuterol and racemic bambuterol were administrated orally to guinea pigs at a dose of 8 mg/kg. Four hours later, blood was collected from the animals, and the serum containing the active parent form of the test compounds were prepared. The concentration of the active parent form, i.e. terbutaline, in serum measured using BPLC, was 64-70 ng/ml in the animal treated with R-bambuterol and 62-69 ng/ml in the animal treated with racemic bambuterol. The serum containing the active form of test compound was then added into the organ in a certain volume, so that the final concentration of the active forms of test compounds was 0.25 ng/ml in the organ bath. Concentration-response relationships were obtained using a cumulative dose schedule by adding the same volume of the serum into the organ bath. The test using the serum containing the active form of racemic bambuterol was done in parallel with the test compound in the same manner as described above.

rats = assay: Cardiovascular effects in anesthetized rats; assay type: in vivo; conditions: both, Sprague Dawley, rat, in vivo, 20 min
Source text: Test method: Rats (Sprague Dawley, 250-300 g) were randomized into two groups (n=6, equal sexes). After anesthesia, plastic tubing was introduced into a carotid artery of each animal and connected to pressure transducers to record mean artery pressure (MBP) and heart rate (HR). Another tube was introduced into the left ventricular chamber via the another carotid artery and connected to a pressure transducer. Left ventricular systolic pressure (LVSP) and the first order of differential of LVSP (dp/dt) as an index for inotropic effects were recorded. R-Bambuterol and racemic bambuterol hydrochloride were dissolved in saline and administrated intravenously at 30 mg/kg to each animal. The HR, MBP and Max dp/dt were measured before treatment (control) and after the treatments when the maximum response occurred, and 20 min after treatment as indication of recovery.

[2] = system: sensitized conscious guinea pigs exposed to aerosol ovalbumin; assay: Protection against allergic bronchospasm in ovalbumin-sensitized conscious guinea pigs; assay type: in vivo, guinea pig
Method: Test method: Guinea pigs (Dunkin-Hartley strain, 200±10 g, equal sexes) were used in this study. Ovalbumin (5%) solution was injected into guinea pigs subcutaneously and intraperitoneally to sensitize the animals. Male and female sensitized animals were kept separately for 14 days, and food and water was available ad libitum. On day 14 after sensitization, animals were randomized into groups of 8 each. The animals were treated orally with saline (control) or various concentrations of R-bambuterol or racemic bambuterol in saline. Four hours after the treatment, each animal was restrained in a glass chamber. After stabilization the animal was exposed to an aerosol of ovalbumin generated by a nebulizer from a 5% solution of ovalbumine at a rate of 0.5 ml/min for a period of 15 seconds. The animal was removed from the chamber, and the behavior of the animal was monitored. The number of the sensitized animals which collapsed were counted, and the latency time, i.e. the time from the exposure to aerosol ovalbumin to the collapse of the animal, was recorded.

[3] = system: conscious guinea pigs exposed to aerosol histamine; assay: Protection against histamine-evoked asthma in conscious guinea pigs; assay type: in vivo, guinea pig; conditions: for Collapsed n: 8 animals; for Potency relative to racemic bambuterol: bronchospasmolytic / protective effect, hydrochloride; for % collapse / Latency time of collapse: dose-response, four hours before exposure
Method: Test methods: Guinea pigs (Dunki-Hartley strain, 190±30 g) were fasted overnight but given water ad libidum. The animals were restrained individually in a glass chamber and exposed to aerosol histamine generated by a nebulizer from a 0.2% aqueous solution of histamine under constant pressure at dose of 0.5 ml/min for a period of 15 sec. The animal was removed from the chamber, and its behavior was monitored. A sign of collapse and the latency time from exposure to collapse were recorded. Only the animals with latency time less than 120 sec, as an indication of sensitive to histamine, were chosen for later experiments. The animals chosen were allowed to recover completly by resting for 24 hours before experiments. Test compounds and racemic bambuterol hydrochloride were dissolved in saline.
Time course of the effect of test compounds: R-Bambuterol hydrochloride or racemic bambuterol hydrochloride at 2, 4 and 8 mg/kg, and vehicle alone, were administered to the guinea pigs orally via a stomach tube. Exposure of treated animals to aerosol histamine (as above) was done at 1, 4 and 24 hours after treatment. For each experimental group, there were a total of 8 animals with equal number of both sexes, and no repeated exposure was made for individual experimental animals.
Study of dose-response of test compounds: Four hours before the exposure to aerosol histamine, animals were randomized into groups (n=8, equal male and female), and given R-bambuterol hydrochloride or racemic bambuterol in doses of 0.25, 0.5, 1.0, 2.0, 4.0 and 8.0 mg/kg, and vehicle control, orally via a stomach tube. The numbers of collapsed animal as a result of asthmatic reaction to aerosol histamine were counted, and the latency times were recorded. Both of these parameters were used as quantitative measurements of the protective effects of the treatments on bronchospasm evoked by aerosol histamine.

β-2 receptor = conditions: Hartley and Middlemis 1971; cited from earlier work
[4] = Tyl + 10 mg (10 mg/kg oral once a day for four days)
[5] = 0.25 ng/ml active form in organ bath, 10^−5 M histamine pre-contraction

## CCC(C)(C)C(=O)O[C@H]1C[C@@H](C)C=C2C=C[C@H](C)[C@H](CC[C@@H]3C[C@@H](O)CC(=O)O3)[C@H]21 [simvastatin]
Hyperlipidemia mice; Tyl + 10 mg
  CHO lipid level: 176 ± 64 mg/dL
  HDL lipid level: 49 ± 16 mg/dL
  LDL lipid level: 42 ± 11 mg/dL
  VLDL lipid level: 85 ± 50 mg/dL
Hyperlipidemia mice; [4]
  TG lipid level: 311 ± 187 mg/dL

## CC(C)(C)NC[C@H](O)c1cc(O)cc(O)c1 [Active form of R-bambuterol, R-terbutaline]
[1]; [5]
  Percent of Relaxation: 12.4 ± 1.3%
[1]; 0.50 ng/ml active form
  Percent of Relaxation: 19.5 ± 2.2%
[1]; 0.75 ng/ml active form
  Percent of Relaxation: 43.7 ± 1.8%
[1]; 1.00 ng/ml active form
  Percent of Relaxation: 60.1 ± 5.7%
[1]; 1.25 ng/ml active form
  Percent of Relaxation: 75.6 ± 8.4%

## CN(C)C(=O)Oc1cc(OC(=O)N(C)C)cc([C@@H](O)CNC(C)(C)C)c1 [R-bambuterol, R-Bambuterol hydrochloride]
rats
  HR 20 min after Δ, % of Control: 3.7%
  Maxdp/dt 20 min after Δ, % of control: 5.0%
Hyperlipidemia mice; Tyl + 5 mg
  CHO lipid level: 189 ± 83 mg/dL
  HDL lipid level: 42 ± 27 mg/dL
  LDL lipid level: 34 ± 15 mg/dL
  VLDL lipid level: 50 ± 26 mg/dL
Hyperlipidemia mice; Tyl + 5 mg (5 mg/kg oral once a day for four days)
  TG lipid level: 323 ± 176 mg/dL
Hyperlipidemia mice; Tyl + 10 mg
  CHO lipid level: 119 ± 16 mg/dL
  HDL lipid level: 53.3 ± 6.7 mg/dL
  LDL lipid level: 29 ± 5 mg/dL
  VLDL lipid level: 35 ± 7 mg/dL
Hyperlipidemia mice; [4]
  TG lipid level: 105 ± 18 mg/dL
[2]; 1 mg/kg oral
  % collapsed: 63%
  Latency time: 193 ± 30 s
[2]; 1 mg/kg oral (n = 8), four hours before aerosol ovalbumin
  Number collapsed: 5
[2]; 4 mg/kg oral
  % collapsed: 25%
  Latency time: 293 ± 27 s
[2]; 4 mg/kg oral (n = 8)
  Number collapsed: 2
[2]; 8 mg/kg oral
  % collapsed: 0%
  Latency time: >360*# sec
[3]; 2 mg/kg oral, 1st Hour
  Collapsed %: 50.0* %
  Latency: 231 ± 70 s
  Collapsed n: 4.0
[3]; 2 mg/kg oral, 4th Hour
  Collapsed %: 25.0* %
  Latency: 295 ± 65 s
  Collapsed n: 2.0
[3]; 2 mg/kg oral, 24th Hour
  Collapsed %: 62.5%
  Latency: 202 ± 67 s
  Collapsed n: 5.0
[3]; 4 mg/kg oral, 1st Hour
  Collapsed %: 37.5* %
  Latency: 258 ± 71 s
  Collapsed n: 3.0
[3]; 4 mg/kg oral, 4th Hour
  Collapsed %: 0.0* %
  Latency: >360 s
  Collapsed n: 0.0
[3]; 4 mg/kg oral, 24th Hour
  Collapsed %: 50.0%
  Latency: 242 ± 64 s
  Collapsed n: 4.0
[3]; 8 mg/kg oral, 1st Hour
  Collapsed %: 25.0%
  Latency: 299 ± 57 s
  Collapsed n: 2.0
[3]; 8 mg/kg oral, 4th Hour
  Collapsed %: 0.0%
  Latency: >360 s
  Collapsed n: 0.0
[3]; 8 mg/kg oral, 24th Hour
  Collapsed %: 37.5%
  Latency: 256 ± 72 s
  Collapsed n: 3.0
[3]; Cavia porcellus, 4 h, oral, four hours before aerosol histamine, read-out: ED50 (protection against collapse)
  ED50: 0.91 mg/kg
[3]; oral
  Potency relative to racemic bambuterol: about twice
[3]; oral, listed as R enantiomer of bambuterol
  Potency relative to racemic bambuterol: about twice
[3]; oral, listed as R-Bambuterol
  Potency relative to racemic bambuterol: about twice
[3]; 0.25 mg/kg oral
  % collapse: 87.5%
  Latency time of collapse: 110 s
[3]; 0.5 mg/kg oral
  % collapse: 75%
  Latency time of collapse: 160 s
[3]; 1 mg/kg oral
  % collapse: 50%
  Latency time of collapse: 209 s
[3]; 2 mg/kg oral
  % collapse: 25%
  Latency time of collapse: 295 s
[3]; 4 mg/kg oral
  % collapse: 0%
  Latency time of collapse: >360 s
[3]; 8 mg/kg oral
  % collapse: 0%
  Latency time of collapse: >360 s
[3]; oral 2 to 8 mg/kg
  Onset of protective effects after administration: one
  Time of maximum protective effects after administration: 4 h
[3]; oral, collapse after aerosol histamine
  Dose at which full protective effect was seen: 4 mg/kg
[3]; oral, latency time to collapse
  Dose at which maximum effects on latency were seen: 4 mg/kg

## CC(C)(C)NCC(O)c1cc(O)cc(O)c1 (racemic) [Active form of RS-bambuterol, racemic terbutaline]
[1]; [5]
  Percent of Relaxation: 7.6 ± 0.8%
[1]; 0.50 ng/ml active form
  Percent of Relaxation: 10.8 ± 2.1%
[1]; 0.75 ng/ml active form
  Percent of Relaxation: 26.5 ± 3.4%
[1]; 1.00 ng/ml active form
  Percent of Relaxation: 39.6 ± 4.0%
[1]; 1.25 ng/ml active form
  Percent of Relaxation: 45.7 ± 6.7%

## CC(C)(C)NC[C@H](O)c1ccc(O)c(CO)c1 [R-enantiomer of albuterol, albuterol]
β-2 receptor
  Potency as β-2 receptor agonist relative to the S-enantiomer: approximately 80 times
